Among the data in patent publication US11512074B2, “Substituted diamino heterocyclic carboxamide compound and a composition containing the compound and use thereof” (Shenzhen TargetRx, Inc., priority 2018, dated 2022) are IC50 values, retold here.

Common to all, as to assay type: cell-based
In one experiment the test system is MV-4-11 cells. The experiment is described as follows: Inhibition of cell MV-4-11 proliferation (CTG assay). As to conditions: Homo sapiens, MV4-11, 72 hours. The source says:
(§1) Cell MV-4-11 (ATCC, Cat. No. CRL-9591), cell MOLM-13 (COBIOER, Cat. No. CBP60678), RPMI-1640 (GIBCO, Cat. No. A10491-01), penicillin-streptomycin (GIBCO, Cat. No. 15140-122), fetal bovine serum (GIBCO, Cat. No. 10099-141), phosphate buffer solution PBS (GIBCO, Cat. No. 10010-031), DMSO (Sigma, Cat. No. D8418-1L), CelltiterGlo Assay kit (CTG) (Promega, Cat. No. G7573), 96-well plate with transparent flat bottom and black walls (PerkinElmer, Cat. No. 6005680-50), plate shaker (QILINBEIER, Cat. No. B-9002), centrifuge (Eppendorf, Cat. No. 5804R), CO2 incubator (Thermo Scientific, Cat. No. 371), microscope (OLYMPUS Cat. No. CKX41), multi-plate reader (PerkinElmer, Cat. No. EnVision).
(§2) (2) Preparation of Cell Suspension • a) The medium was collected from the culture bottle and centrifuged at 1000 rpm for 5 min. • b) The supernatant was discarded, and the cells were resuspended in medium containing 10% fetal bovine serum, and counted to prepare a cell suspension (cell viability was greater than 90%). • c) The cell suspension was added into a 96-well plate, with […] in each well, namely 5000 MV-4-11 cells/well; 5000 MOLM-13 cells/well. • d) The cell plate was cultured overnight in a 37° C., 5% CO2 incubator.
(§3) Dilution of Compounds in DMSO: • a) MV-4-11 cells: The compounds were diluted with DMSO from 10 mM to 60 uM, and then subjected to a 3-fold serial gradient dilution in DMSO from 60 uM, resulting in 9 concentrations. • b) MOLM-13 cells: The compounds were diluted with DMSO from 10 mM to 200 uM, and then subjected to a 3-fold serial gradient dilution in DMSO from 200 uM, resulting in 9 concentrations. • c) Compound Taxol was diluted with DMSO from 10 mM to 200 uM, and then subjected to a 3-fold serial gradient dilution in DMSO from 200 uM, resulting in 9 concentrations.
(§4) (4) Treatment of Cells with Compounds (after the Overnight Incubation of the Cell Plate) • a) Each well was replenished with 99 μl of growth medium containing 10% FBS, and then 1 μl of the diluted compound was added to the well. The concentration of DMSO was 0.5%. • b) Concentrations of the tested compounds were: MV-4-11 cells: 300, 100, 33.3, 11.1, 3.7, 1.23, 0.41, 0.137, 0.046, 0 [nM]. • MOLM-13 cells: 1000, 333.3, 111.1, 37.04, 12.35, 4.1, 1.37, 0.46, 0.15, 0 [nM]. • c) Concentrations of control compound Taxol were: 1000, 333.3, 111.1, 37.04, 12.35, 4.12, 1.37, 0.46, 0.15, 0 [nM]. • d) The cell plate was placed in the incubator for 72 hours.
(§5) (5) CTG Assay • a) The test plate was placed at room temperature and equilibrated for 30 minutes, and 60 μl of the culture medium was discarded. • b) 60 μl of CTG reagent (CelltiterGlo kit) was added, and the plate was placed on a rapid plate shaker to shake for 2 min, and then let it stand at room temperature for 20 min. • c) Envision was used to read the values.
(§6) IC50 values were calculated using GraphPad Prism 6 software. The IC50 (half inhibitory concentration) values of the compounds were obtained by the following non-linear fitting formula. Y=Bottom+(Top−Bottom)/(1+10^((Log IC50−X)*HillSlope)) • X: Log value of the compound concentration • Y: Inhibition rate (% inhibition) % inhibition (inhibition rate)=100*(value of the High Control-value of the test compound well)/(value of the High Control-value of the Low Control)

The next experiment relates to MOLM-13 cells. The experiment is described as follows: Inhibition of cell MOLM-13 proliferation (CTG assay). As to conditions: Homo sapiens, 72 hours, read-out: MOLM-1 IC50.
Text: as §1, §2, §3, §4, §5, §6

The next experiment concerns Ba/F3 parental cells. The experiment is described as follows: Inhibition of Ba/F3 parental cell proliferation (CTG). The following applies: Mus musculus, BaF3, 72 hours, with IL-3. The protocol:
Cell lines were cultured under the condition of 37° C., 5% CO2 and 95% humidity: cell line Ba/F3 parental (suspended, 3000 cells/well, medium was RPMI-1640+10% FBS+8 ng/ml IL-3), cell line Ba/F3 FLT3-ITD (suspended, 3000 cells/well, medium was RPMI-1640+10% FBS)
Reagents and materials: Fetal bovine serum (FBS, GBICO, Cat. No. 10099-141), CellTiter-Glo® Luminescent Cell Viability Assay (Promega, Cat. No. G7572), 96-well plate with transparent flat bottom and black walls (Corning®, Cat. No. 3603), control compound AC220 (Selleck, Cat. No. S1526).
Cell Culture and Inoculation: • 1. Cells in the logarithmic growth phase were harvested and counted using a platelet counter. The cell viability was determined by trypan blue exclusion method to ensure that the cell viability was greater than 90%; • 2. The cell concentration was adjusted and 90 μL of the cell suspension was added into a 96-well plate respectively; • 3. The cells in the 96-well plate were cultured overnight under the condition of 37° C., 5% CO2 and 95% humidity.
Drug Dilution and Dosing: • 1. The 10-fold drug solutions were prepared with a maximum concentration of 100 μM, which was diluted using a 3.16-fold serial gradient dilution, resulting in 9 concentrations. 10 μL of the drug solutions was added to each well of the 96-well plate inoculated with Ba/F3 parental cells; and each drug concentration was set in triplicate. • 2. The 10-fold drug solutions were prepared with a maximum concentration of 10 μM, which was diluted using a 3.16-fold serial gradient dilution, resulting in 9 concentrations. 10 μL of the drug solutions was added to each well of the 96-well plate inoculated with Ba/F3 FLT3-ITD cells; and each drug concentration was set in triplicate. • 3. The cells in the 96-well plate with drugs were cultured at 37° C., 5% CO2 and 95% humidity for 72 hours, and then CTG analysis was carried out.
Plate Reading at the End Point: • 1. CTG reagent was thawed and the cell plate was equilibrated to room temperature for 30 minutes; • 2. Equal volume of the CTG solution was added to each well; • 3. The cell plate was shaked on the orbital shaker for 5 minutes to lyse the cells; • 4. The cell plate was placed at room temperature for 20 minutes to stabilize the cold light signal; • 5. The cold light values were read.
GraphPad Prism 8.0 software was used to analyze the data, and the data was fitted using the non-linear S-curve regression to get a dose-effect curve, and IC50 values were calculated. Cell viability (%)=(Lum of test drug−Lum of medium control)/(Lum of cell control−Lum of medium control)×100%.

By IC50 is commonly meant the concentration needed to halve the response being measured. Consider `[2H]C([2H])([2H])Oc1cc(Nc2nc(NC3CCOCC3)c(CC)nc2C(N)=O)ccc1N1CCC(N2CCN(C([2H])([2H])[2H])CC2)CC1` [Compound T-3, 6-ethyl-3-((3-(methoxy-d3)-4-(4-(4-(methyl-d3)piperazin-1-yl)piperidin-1-yl)phenyl)amino)-5-((tetrahydro-2H-pyran-4-yl)amino)pyrazine-2-carboxamide], for which the IC50 in the experiment on MV-4-11 cells came out at 2.25 nM; in the experiment on MOLM-13 cells, 14.2 nM; with Ba/F3 parental cells it was 5.37 µM.
The like results for `[2H]C([2H])([2H])N1CCN(C2CCN(c3ccc(Nc4nc(NC5CCOCC5)c(C([2H])([2H])C([2H])([2H])[2H])nc4C(N)=O)cc3OC)CC2)CC1` [Compound T-5, 6-(ethyl-d5)-3-((3-methoxy-4-(4-(4-(methyl-d3)piperazin-1-yl)piperidin-1-yl)phenyl)amino)-5-((tetrahydro-2H-pyran-4-yl)amino)pyrazine-2-carboxamide] were, in that order, 2.01 nM, 12 nM and 9.29 µM.
Turning to `[2H]C([2H])([2H])Oc1cc(Nc2nc(NC3CCOCC3)c(CC)nc2C(N)=O)ccc1N1CCC(N2CCN(C)CC2)CC1` [Compound T-1, 6-ethyl-3-((3-(methoxy-d3)-4-(4-(4-methylpiperazin-1-yl)piperidin-1-yl)phenyl)amino)-5-((tetrahydro-2H-pyran-4-yl)amino)pyrazine-2-carboxamide], the IC50 in the experiment on MV-4-11 cells stood at 2.17 nM; in the experiment on MOLM-13 cells it was 15 nM; in the experiment on Ba/F3 parental cells, 9.72 µM.
For `CCc1nc(C(N)=O)c(Nc2ccc(N3CCC(N4CCN(C)CC4)CC3)c(OC)c2)nc1NC1CCOCC1` [Gilteritinib, 6-ethyl-3-((3-methoxy-4-(4-(4-methylpiperazin-1-yl)piperidin-1-yl)phenyl)amino)-5-((tetrahydro-2H-pyran-4-yl)amino)pyrazine-2-carboxamide, reference compound], the IC50 in the experiment on MV-4-11 cells stood at 2.23 nM; in the experiment with MOLM-13 cells, 14.3 nM.
For the compound `[2H]C([2H])([2H])N1CCN(C2CCN(c3ccc(Nc4nc(NC5CCOCC5)c(CC)nc4C(N)=O)cc3OC)CC2)CC1` [Compound T-2, 6-ethyl-3-((3-methoxy-4-(4-(4-(methyl-d3)piperazin-1-yl)piperidin-1-yl)phenyl)amino)-5-((tetrahydro-2H-pyran-4-yl)amino)pyrazine-2-carboxamide], the IC50 in the experiment on MV-4-11 cells worked out at 2.35 nM; with MOLM-13 cells, 14.3 nM; with Ba/F3 parental cells, 7.16 µM.
Turning to `[2H]C1([2H])N(C)C([2H])([2H])C([2H])([2H])N(C2CCN(c3ccc(Nc4nc(NC5CCOCC5)c(CC)nc4C(N)=O)cc3OC)CC2)C1([2H])[2H]` [Compound T-8, 6-ethyl-3-((3-methoxy-4-(4-(4-methylpiperazin-1-yl-2,2,3,3,5,5,6,6-d8)piperidin-1-yl)phenyl)amino)-5-((tetrahydro-2H-pyran-4-yl)amino)pyrazine-2-carboxamide], the IC50 in the experiment with MV-4-11 cells was found to be 2.17 nM; in the experiment with Ba/F3 parental cells, 6.87 µM.
Consider `[2H]C([2H])([2H])N1C([2H])([2H])C([2H])([2H])N(C2CCN(c3ccc(Nc4nc(NC5CCOCC5)c(CC)nc4C(N)=O)cc3OC)CC2)C([2H])([2H])C1([2H])[2H]` [Compound T-9, 6-ethyl-3-((3-methoxy-4-(4-(4-(methyl-d3)piperazin-1-yl-2,2,3,3,5,5,6,6-d8)piperidin-1-yl)phenyl)amino)-5-((tetrahydro-2H-pyran-4-yl)amino)pyrazine-2-carboxamide], for which the IC50 with MV-4-11 cells was 2.03 nM; with MOLM-13 cells, 14.5 nM; with Ba/F3 parental cells, greater than 10 µM.
